Measurements as given in publication PMC11618697 (Nature Communications, 2024).
Each block holds one compound with its values, some of them ahead of it. Residues, ends and D or L forms follow the SMILES beside them. *: point of attachment. Cbz = O=C(OCc1ccccc1)*

What was measured:
Hut78 cells [1] = test: IC50 assay, trypan blue exclusion count; format: cell-based, human
CDK9 [2] = target: T1, CDK9 (Homo sapiens, UniProt P50750); format: cell-based; conditions: Hut78; 10 μM for 2 h prior to 6-h of GT-02897 (100 nM)
CDK9 [3] = target: T1, CDK9; test: Western blot of CDK9 in Hut78 cells; format: cell-based; conditions: for degradation of CDK9 (immunoblot): Hut78 cells
CDK2, CDK6 and CDK7 = test: Western blot of other CDKs in Hut78 cells; format: cell-based, human
[4] = system: Foxp3 in HH and Hut78 cells; test: Intracellular staining of Foxp3; format: cell-based, human; conditions: 1 µM, 48 h
[5] = system: CD25, CD5 and CD7 on HH and Hut78 cells; test: Flow cytometry of CD25, CD5 and CD7; format: cell-based, human; conditions: 2 µM, 48 hours
Hut78 cells [6] = test: Cell proliferation assays; format: cell-based, human
human CD25 = test: IHC staining of human CD25 in Hut78 xenograft tumors; format: in vivo, NSG mice
Hut78 cell proteins = test: Quantitative MS-based proteomics of Hut78 cells; format: cell-based, human
HH cells [7] = test: IC50 assay, trypan blue exclusion count; format: cell-based; conditions: Homo sapiens, 48 h
CDK9 [8] = target: T1, CDK9; test: IHC staining of human CDK9 in Hut78 xenograft tumors; format: in vivo, NSG mice; conditions: intraperitoneal injection
[9] = system: CDK9 (55 kDa) and CDK9 (42 kDa) mRNA; test: Q-PCR of CDK9 isoforms in Hut78 cells; format: cell-based, human
Hut78 xenografts = test: Hut78 cell line derived xenograft in NSG mice; format: in vivo
CDK9 [10] = target: T1, CDK9; test: DC50; format: cell-based; conditions: CDK9 in Hut78 cells; 10 h
293T cells = test: Viability of normal cells, trypan blue; format: cell-based, human
HH cells [11] = test: Candidate PROTACs, cell viability by CCK8; format: cell-based, human; conditions: CCK8 (Fig 3c)
HH tumors = test: HH cell line derived xenograft in nude mice; format: in vivo
RARα = test: Western blot of RARα in Hut78 cells; format: cell-based, human
RARA mRNA = test: Q-PCR of RARA in Hut78 cells; format: cell-based, human
Hut78 cells [12] = test: Cell viability / cell death at fixed dose, trypan blue; conditions: 250 nM, trypan blue (Supplementary Fig 4a)
CDK9 [13] = test: Western blot of CDK9 in HH cells; conditions: HH cells (Fig 3b)
CDK9 [14] = target: T1, CDK9; test: Western blot of CDK9 in MOLT-4 cells; format: cell-based; conditions: MOLT-4 acute lymphoblastic leukemia cell line

T1 sequence (P50750 whole entry): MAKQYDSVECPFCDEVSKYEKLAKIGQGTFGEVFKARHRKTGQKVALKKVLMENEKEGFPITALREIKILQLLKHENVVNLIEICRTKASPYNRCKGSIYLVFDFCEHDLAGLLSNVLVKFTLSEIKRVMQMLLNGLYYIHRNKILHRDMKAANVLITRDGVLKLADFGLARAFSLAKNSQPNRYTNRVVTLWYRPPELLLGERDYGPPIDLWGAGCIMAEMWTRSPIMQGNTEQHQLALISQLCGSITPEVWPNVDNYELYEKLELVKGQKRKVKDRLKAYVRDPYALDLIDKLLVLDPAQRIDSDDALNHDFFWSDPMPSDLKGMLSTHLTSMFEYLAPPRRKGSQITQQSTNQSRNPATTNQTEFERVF

SMILES: O=C1NCCc2[nH]c(-c3ccncc3)cc21 [PHA-767491, reference compound]
- IC50 (Hut78 cells [1]; Hut78 cells, 48-h, trypan blue): 926 nM
- effect of pre-treatment on degradation of CDK9 by GT-02897 (CDK9 [2]): significantly dampened the degradation of CDK9

- degradation of CDK9 (immunoblot) (CDK9 [3]): strong degradation of CDK9
SMILES: CC(C)(C)c1cnc(CSc2cnc(NC(=O)C3CCN(CCCCSc4cccc5c4C(=O)N(C4CCC(=O)NC4=O)C5=O)CC3)s2)o1 (centres unmarked) [Compound 25, N-(5-(((5-(tert-butyl)oxazol-2-yl)methyl)thio)thiazol-2-yl)-1-(4-((2-(2,6-dioxopiperidin-3-yl)-1,3-dioxoisoindolin-4-yl)thio)butyl)piperidine-4-carboxamide]
- IC50 (Hut78 cells [1]; Homo sapiens, HuT78, 48 h): 50 to 165 nM
- protein levels of CDK2, CDK6 and CDK7 (immunoblot) (CDK2, CDK6 and CDK7): without interfering protein levels of CDK2, CDK6 and CDK7

SMILES: CC1=C(/C=C/C(C)=C/C=C/C(C)=C/C(=O)O)C(C)(C)CCC1 [ATRA, all-trans retinoic acid]
- Expression of Foxp3 [4]: not changed
- CD5 and CD7 level (flow cytometry) [5]: unchanged
- CD25 expression (flow cytometry) [5]: emerging expression of CD25
- CTCL cell growth and apoptosis (Hut78 cells [6]; CTCL cells (Hut78, Fig 7g)): significant inhibition of cell growth without cell apoptosis
- cell growth of shCDK9-infected Hut78 cells (Hut78 cells [6]; Hut78 infected with shCDK9): more pronounced inhibition of cell growth
- CD25 expression in isolated tumor tissues (IHC) (human CD25): in vivo upregulation of CD25 expression

SMILES: CC(C)(C)c1cnc(CSc2cnc(NC(=O)C3CCN(CCCCCSc4cccc5c4CN(C4CCC(=O)NC4=O)C5=O)CC3)s2)o1 (centres unmarked) [Compound 23, N-(5-(((5-(tert-butyl)oxazol-2-yl)methyl)thio)thiazol-2-yl)-1-(5-((2-(2,6-dioxopiperidin-3-yl)-1-oxoisoindolin-4-yl)thio)pentyl)piperidine-4-carboxamide]
- CDK9 abundance in quantitative proteomics (Hut78 cell proteins; 6 h after treatment, 5,689 proteins): one of the most significantly downregulated proteins
- RARα protein (Hut78 cell proteins; proteomics 12 hours, validated by western blot): significantly upregulated
- IC50 (HH cells [7]): 66.2 nM
- CDK9 in isolated tumor tissues (IHC) (CDK9 [8]): in vivo degradation of CDK9 by GT-02897 was further confirmed
- mRNA expression of CDK9 (42 kDa) and CDK9 (55 kDa) isoforms [9]: not affected
- CTCL tumors in vivo, co-administration with ATRA (Hut78 xenografts; Hut78 xenograft): more significant inhibition of CTCL tumors in vivo
- Hut78 cell growth in vivo (Hut78 xenografts; every other day, intraperitoneal or subcutaneous injection, 14 days): significantly suppress Hut78 cell growth in vivo
- growth inhibition effect in CDK9-depleted (shRNA) Hut78 xenografts (Hut78 xenografts; shCDK9-1 or shCDK9-2): significantly impaired the growth inhibition effect of GT-02897
- IC50 (Hut78 cells [1]; Homo sapiens, HuT78, 48 h): 49.7 nM
- DC50 (CDK9 [10]): 2.85 nM
- inhibition of CTCL cells, co-administration with ATRA (Hut78 cells [6]; Hut78, in vitro, cell number by trypan blue): more significant inhibition of CTCL cells
- degradation of CDK9 (immunoblot) (CDK9 [3]): strong degradation of CDK9
- killing effects on 293T cell (293T cells): minimal killing effects
- protein levels of CDK2, CDK6 and CDK7 (immunoblot) (CDK2, CDK6 and CDK7): without interfering protein levels of CDK2, CDK6 and CDK7

- effect of MG132 on CDK9 loss induced by GT-02897 (CDK9 [3]; Hut78, GT-02897 in presence or absence of MG132): reverted the expression of CDK9 protein
SMILES: CC(C)C[C@@H](C=O)NC(=O)[C@H](CC(C)C)NC(=O)[C@H](CC(C)C)NC(=O)OCc1ccccc1 [MG132, reference compound] (Cbz-Leu-Leu-Leu-aldehyde)

SMILES: CC(C)(C)c1cnc(CSc2cnc(NC(=O)C3CCN(C(=O)CCCSc4cccc5c4C(=O)N(C4CCC(=O)NC4=O)C5=O)CC3)s2)o1 (centres unmarked) [Compound 9, N-(5-(((5-(tert-butyl)oxazol-2-yl)methyl)thio)thiazol-2-yl)-1-(4-((2-(2,6-dioxopiperidin-3-yl)-1,3-dioxoisoindolin-4-yl)thio)butanoyl)piperidine-4-carboxamide]
- IC50 (Hut78 cells [1]; Homo sapiens, HuT78, 48 h): 339 nM
- concentration displaying significant killing effects (HH cells [11]): below 500 nM

- degradation of CDK9 (immunoblot) (CDK9 [3]): strong degradation of CDK9
SMILES: CC(C)(C)c1cnc(CSc2cnc(NC(=O)C3CCN(CCCCCCCSc4cccc5c4C(=O)N(C4CCC(=O)NC4=O)C5=O)CC3)s2)o1 (centres unmarked) [Compound 26, N-(5-(((5-(tert-butyl)oxazol-2-yl)methyl)thio)thiazol-2-yl)-1-(7-((2-(2,6-dioxopiperidin-3-yl)-1,3-dioxoisoindolin-4-yl)thio)heptyl)piperidine-4-carboxamide]
- IC50 (Hut78 cells [1]; Homo sapiens, HuT78, 48 h): 50 to 165 nM
- protein levels of CDK2, CDK6 and CDK7 (immunoblot) (CDK2, CDK6 and CDK7): without interfering protein levels of CDK2, CDK6 and CDK7

SMILES: CC(C)(C)c1cnc(CSc2cnc(NC(=O)C3CCN(C(=O)COCCOCCSc4cccc5c4C(=O)N(C4CCC(=O)NC4=O)C5=O)CC3)s2)o1 (centres unmarked) [Compound 19, N-(5-(((5-(tert-butyl)oxazol-2-yl)methyl)thio)thiazol-2-yl)-1-(2-(2-(2-((2-(2,6-dioxopiperidin-3-yl)-1,3-dioxoisoindolin-4-yl)thio)ethoxy)ethoxy)acetyl)piperidine-4-carboxamide]
- IC50 (Hut78 cells [1]; Homo sapiens, HuT78, 48 h): 404 nM
- concentration displaying significant killing effects (HH cells [11]): below 500 nM

SMILES: CC(C)(C)c1cnc(CSc2cnc(NC(=O)C3CCNCC3)s2)o1 [SNS-032]
- HH tumors in xenograft models (HH tumors): induced regression of HH tumors in vivo
- effect of pre-treatment on degradation of CDK9 by GT-02897 (CDK9 [2]): significantly dampened the degradation of CDK9

SMILES: CN1CC[C@H](c2c(O)cc(O)c3c(=O)cc(-c4ccccc4Cl)oc23)[C@H](O)C1 [Flavopiridol]
- HH tumors in xenograft models (HH tumors): induced regression of HH tumors in vivo
- RARα protein (Western blot) (RARα): did not yield upregulation of RARα
- mRNA level of RARA (RARA mRNA): nor did it affect the mRNA level of RARA

- CDK9 protein (Western blot) (CDK9 [14]): induced significant loss of CDK9
SMILES: CC(C)(C)c1cnc(CSc2cnc(NC(=O)C3CCN(CC(=O)NCCOCCOCCOCCNc4cccc5c4C(=O)N(C4CCC(=O)NC4=O)C5=O)CC3)s2)o1 (centres unmarked) [THAL-SNS-032]
- killing in CTCL cells (Hut78 cells [12]): nor did it display effective killing
- CDK9 protein (Western blot) (CDK9 [13]): did not disturb CDK9 protein

SMILES: CC(C)(C)c1cnc(CSc2cnc(NC(=O)C3CCN(CCCCCCCCSc4cccc5c4C(=O)N(C4CCC(=O)NC4=O)C5=O)CC3)s2)o1 (centres unmarked) [Compound 27, N-(5-(((5-(tert-butyl)oxazol-2-yl)methyl)thio)thiazol-2-yl)-1-(8-((2-(2,6-dioxopiperidin-3-yl)-1,3-dioxoisoindolin-4-yl)thio)octyl)piperidine-4-carboxamide]
- IC50 (Hut78 cells [1]; Homo sapiens, HuT78, 48 h): 50 to 165 nM

- degradation of CDK9 (immunoblot) (CDK9 [3]): strong degradation of CDK9
SMILES: CC(C)(C)c1cnc(CSc2cnc(NC(=O)C3CCN(CCCCCCCCSc4cccc5c4CN(C4CCC(=O)NC4=O)C5=O)CC3)s2)o1 (centres unmarked) [Compound 24, N-(5-(((5-(tert-butyl)oxazol-2-yl)methyl)thio)thiazol-2-yl)-1-(8-((2-(2,6-dioxopiperidin-3-yl)-1-oxoisoindolin-4-yl)thio)octyl)piperidine-4-carboxamide]
- protein levels of CDK2, CDK6 and CDK7 (immunoblot) (CDK2, CDK6 and CDK7): without interfering protein levels of CDK2, CDK6 and CDK7
